Measured values from patent US8242120B2 (priority 2007, dated 2012).
Entries after “also recorded” stand apart in the source; their conditions may differ.

Key:
[1] = tested on: Venezuelan equine encephalitis virus (TC-83 vaccine strain); parameters: species or system C3H/HeN mice; conditions: in vivo
flu A (DUCK)-H5N1 virus = assay type: cell-based, Avian influenza A H5N1
[2] = tested on: Avian influenza A strain H5N1 virus; assay type: cell-based
CTP synthase = conditions: cited from earlier work
[3] = mouse, in vivo
[4] = tested on: Venezuelan Equine Encephalitis (VEE); assay type: cell-based, Venezuelan equine encephalitis virus

In the case of `Nc1ccn([C@@H]2C[C@H](CO)[C@@H](O)[C@H]2O)c(=O)n1` [(−) carbodine, (1R,2S,3R,4R)-1-[2,3-Dihydroxy-4-(hydroxymethyl)-cyclopentan-1-yl]cytosine], the “activity against vaccine strain (TC-83) of VEEV in C3H/HeN mouse model” value [1] is reported as “active”, the “all disease signs measured” value ([1]; mouse) is reported as “effective in significantly improving” and the “mean day to death” value ([1]; mouse) is reported as “efficacious in significantly improving; also recorded: effective in significantly improving”. For the same molecule, the “reduction in brain virus titer” value ([1]; mouse) was 1 log, the survival ([1]; mouse) was “efficacious in significantly improving; also recorded: effective in significantly improving” and the weight gain ([1]; mouse) was “efficacious in significantly improving; also recorded: effective in significantly improving”. The “activity against H5N1 in vitro” value (flu A (DUCK)-H5N1 virus) was “good activity”, the “activity as an inhibitor of Avian Influenza A strain H5N1” value [2] was “good activity” and the “inhibition of CTP synthase that converts UTP to CTP” value (CTP synthase) was “known inhibitor”. For the same molecule, the “weight loss in sham infected mice” value [3] was “weight loss was observed” and the “activity against VEE in vitro” value [4] was “good activity”.
